Converted amounts (≈) assume the structure as drawn. Like-named read-outs stand apart in the source and are kept apart here.
What was measured:
[1] = test system: SCIRPUS; test: Test C rice paddy; assay type: in vivo, Scirpus paludosus; settings: Bolboschoenus maritimus, 504 h, 21 days, read-out: plant response; for pest or weed control at 64 g/ha: 0064 G/HA; for pest or weed control at 125 g/ha: 0125 G/HA; for pest or weed control at 250 g/ha: 0250 G/HA; for pest or weed control at 500 g/ha: 0500 G/HA
Description: (§1) Sixteen cm diameter Airlite plastic pots were partially filled with Tama slit loam soil and the soil saturated with water. Japonica and Indica rice seedlings a the 2.0 to 2.5 leaf stage were transplanted into 1/3 of the pots. Into another third of the pots were transplanted seedling or sprouted tubers of water plantain (Alisma trivale), Scripus (Scirpus paludosus), Cyperus (Cyperus esculentus), and arrowhead (Sagittaria spp.). The remaining pots were planted with barnyardgrass (Echinochloa crusgalli) seeds and sprouted tubes of water chestnut (Eleocharis spp.). These weeds all represent major rice weeds or genera of weeds important in rice. Three to four days after planting, the water level was raised to 3 cm (about 1200 ml/pot) and maintained a this level throughout the test. Chemical treatments were applied directly to the paddy water, within 24 hours of raising the water, after being formulated in a nonphytotoxic solvent. The pots were maintained in the greenhouse.

[2] = test system: WATER PLAINTAIN; test: Test C rice paddy; assay type: in vivo, Alisma trivale; settings: 504 h, 21 days, read-out: plant response; for pest or weed control at 64 g/ha: 0064 G/HA; for pest or weed control at 125 g/ha: 0125 G/HA; for pest or weed control at 250 g/ha: 0250 G/HA; for pest or weed control at 500 g/ha: 0500 G/HA
Description: as §1

[3] = test system: MUSTARD SPP.; test: Test E; assay type: in vivo, Brassica spp.
[4] = test system: Candida albicans ATCC 11651; test: In vivo systemic Candida infection in mice, primary assay; set-up: species or system Candida albicans; CF-1 female mice; settings: Candida albicans, 150 mg/kg per day, read-out: % Survival
Outline: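 CF-1 female mice (20 g, 10 per group) were infected IV with 0.2 ml of 1×10^7/ml C. albicans ATCC 11651, then given test compound subcutaneously at 50 or 150 mg/kg/day at 1 and 6 h post-infection and once daily for three more days. Survival was followed for 21 days against infected untreated mice; ≥70% protection at 14 days was scored active.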

[5] = test system: Pyricularia oryzae; test: whole plant or invertebrate; assay type: in vivo; settings: Pyricularia oryzae, 120 h, read-out: disease control rating, Ex. E, 100 PPM
[6] = test system: Plasmorpara viticola; test: Example I grape downy mildew; assay type: in vivo; settings: read-out: disease control rating, Ex. I
Outline: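 Applied as a foliar spray to run-off on grape seedlings, the compounds were formulated at 100 or 20 ppm in water containing 250 ppm TREM 014, with acetone making up 6% of the volume.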

[7] = test system: Pythium aphanadermatum; test: Example J cucumber damping off; assay type: in vivo; set-up: key to phytotoxicity entry, Ex. J: P: disease control was not measured due to phytoxicity; settings: 5 kg/ha; for pest or weed control at 5000 g/ha: Pythium, 336 h, read-out: disease control rating, Ex. J
Outline: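 This cucumber damping-off test used soil and seeds infested with a sand–cereal preparation carrying mycelium of Pythium aphanadermatum. Incubation took place in a growth chamber held at 30° C. for 14 days. Afterwards, the extent of disease was scored as a disease control rating.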

[8] = test system: Aspergillus fumigatus ATCC 28214; test: In vitro antifungal MIC, microtiter broth dilution; settings: Aspergillus fumigatus, ATCC28214, 24 h, read-out: MIC values, A. fumigatus, 30°, 24 hours

`C=C(c1ccc(Cl)cc1Cl)C(O)(Cn1cncn1)c1ccccc1F` (stereo not drawn) [Example 107] gave a pest or weed control at 64 g/ha [1] of 0%, a pest or weed control at 125 g/ha [1] of 0% and a pest or weed control at 250 g/ha [1] of 60%. For the same compound, the pest or weed control at 500 g/ha [1] was 80%, the pest or weed control at 1000 g/ha [1] was 80% and the pest or weed control at 64 g/ha [2] was 0%. For the same compound, the pest or weed control at 125 g/ha [2] was 0%, the pest or weed control at 250 g/ha [2] was 0% and the pest or weed control at 500 g/ha [2] was 60%. It also gave a pest or weed control at 1000 g/ha [2] of 80% and a plant response ([3]; PREEMERGENCE 0250 GM/HA) of 20%.
For `C=C(c1ccccc1)C(O)(Cn1cncn1)c1ccc(Cl)cc1` (stereo not drawn) [Example 51, 2-(4-Chlorophenyl)-3-phenyl-1-(1H-1,2,4-triazol-1-yl)-3-buten-2-ol], the responders at 150 mg/kg ([4]; ATCC11651, 168 h, day 7) was 100%, the responders at 150 mg/kg ([4]; ATCC11651, 336 h, day 14) was 100% and the responders at 150 mg/kg ([4]; ATCC11651, 504 h, day 21) was 80%. The pest or weed control at 100 ppm [5] was 0%, the pest or weed control at 100 ppm [6] was 0% and the “phytotoxicity entry, Ex. J” value [7] was “P”. For the same compound, the plant response ([3]; POSTEMERGENCE 0064 GM/HA) was 0%, the plant response ([3]; POSTEMERGENCE 0125 GM/HA) was 30% and the plant response ([3]; POSTEMERGENCE 0250 GM/HA) was 30%. It also gave a plant response ([3]; POSTEMERGENCE 0500 GM/HA) of 30%, a plant response ([3]; PREEMERGENCE 0500 GM/HA) of 0% and an MIC [8] of 3.2 mg/L (≈ 9.82 µM).
In the case of `C=C(c1ccc(F)cc1)C(O)(Cn1cncn1)c1ccccc1F` (stereo not drawn) [Example 644], the responders at 150 mg/kg ([4]; ATCC11651, 168 h, day 7) is reported as 80%, the responders at 150 mg/kg ([4]; ATCC11651, 336 h, day 14) is reported as 70% and the responders at 150 mg/kg ([4]; ATCC11651, 504 h, day 21) is reported as 50%. It also gave a pest or weed control at 100 ppm [5] of 100%, a pest or weed control at 100 ppm [6] of 0% and a pest or weed control at 5000 g/ha [7] of 0%. The plant response ([3]; POSTEMERGENCE 0064 GM/HA) was 20%, the plant response ([3]; POSTEMERGENCE 0125 GM/HA) was 20% and the plant response ([3]; POSTEMERGENCE 0250 GM/HA) was 50%. It also gave a plant response ([3]; POSTEMERGENCE 0500 GM/HA) of 50%, a plant response ([3]; PREEMERGENCE 0500 GM/HA) of 0% and an MIC [8] of 0.4 mg/L (≈ 1.22 µM).
In the case of `C=C(c1ccc(F)cc1)C(O)(Cn1ncnc1S)c1ccc(F)cc1F` (stereo not drawn) [Example 1304], the pest or weed control at 100 ppm [5] is reported as 78%, the pest or weed control at 100 ppm [6] is reported as 18% and the pest or weed control at 5000 g/ha [7] is reported as 0%. The pest or weed control at 64 g/ha [1] was 0%, the pest or weed control at 125 g/ha [1] was 0% and the pest or weed control at 250 g/ha [1] was 65%. For the same compound, the pest or weed control at 500 g/ha [1] was 70%, the pest or weed control at 1000 g/ha [1] was 80% and the pest or weed control at 64 g/ha [2] was 0%. For the same compound, the pest or weed control at 125 g/ha [2] was 0%, the pest or weed control at 250 g/ha [2] was 0% and the pest or weed control at 500 g/ha [2] was 0%. It also gave a pest or weed control at 1000 g/ha [2] of 65%.
